Laboratory results reported in PubChem BioAssay (NCI).
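The concentration for 50% growth inhibition is given as GI50. TGI marks complete inhibition of growth.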

Assays:
Assay in all cases: DTP human tumour cell line panel, 384-well format
[1] = tested on: 786-0 renal
[2] = tested on: A498 renal
[3] = tested on: A549 NSCLC
[4] = tested on: ACHN renal
[5] = tested on: BT-549 breast
[6] = tested on: CAKI-1 renal
[7] = tested on: CCRF-CEM leukemia
[8] = tested on: COLO 205 colon
[9] = tested on: DU-145 prostate
[10] = tested on: EKVX NSCLC
[11] = tested on: HCC-2998 colon
[12] = tested on: HCT-15 colon
[13] = tested on: HL-60(TB) leukemia
[14] = tested on: HOP-62 NSCLC
[15] = tested on: HOP-92 NSCLC
[16] = tested on: HS 578T breast
[17] = tested on: HT29 colon
[18] = tested on: IGROV1 ovarian
[19] = tested on: K-562 leukemia
[20] = tested on: KM12 colon
[21] = tested on: LOX IMVI melanoma
[22] = tested on: M14 melanoma
[23] = tested on: MALME-3M melanoma
[24] = tested on: MCF7 breast
[25] = tested on: MDA-MB-231 breast
[26] = tested on: MDA-MB-435 melanoma
[27] = tested on: MDA-MB-468 breast
[28] = tested on: MOLT-4 leukemia
[29] = tested on: NCI-H226 lung
[30] = tested on: NCI-H23 lung
[31] = tested on: NCI-H322M lung
[32] = tested on: NCI-H460 NSCLC
[33] = tested on: NCI-H522 lung
[34] = tested on: NCI/ADR-RES ovarian
[35] = tested on: OVCAR-3 ovarian
[36] = tested on: OVCAR-4 ovarian
[37] = tested on: OVCAR-5 ovarian
[38] = tested on: OVCAR-8 ovarian
[39] = tested on: PC-3 prostate
[40] = tested on: RPMI-8226 leukemia
[41] = tested on: RXF 393 renal
[42] = tested on: SF-268 CNS
[43] = tested on: SF-295 CNS
[44] = tested on: SF-539 CNS
[45] = tested on: SK-MEL-28 melanoma
[46] = tested on: SK-MEL-5 melanoma
[47] = tested on: SK-OV-3 ovarian
[48] = tested on: SN12C renal
[49] = tested on: SNB-19 CNS
[50] = tested on: SNB-75 CNS
[51] = tested on: SR leukemia
[52] = tested on: SW-620 colon
[53] = tested on: T-47D breast
[54] = tested on: TK-10 renal
[55] = tested on: U251 glioblastoma
[56] = tested on: UACC-257 melanoma
[57] = tested on: UACC-62 melanoma
[58] = tested on: UO-31 renal

Work on `CN(C)CCOc1ccc(-c2nc(-c3ccc4c(c3)CC/C4=N\O)c(-c3ccncc3)[nH]2)cc1` yielded a GI50 [1] of 1.79 µM, a TGI [1] of 3.2 µM and a GI50 [2] of 1.88 µM. It also gave a TGI [2] of 3.31 µM, a GI50 [3] of 1.99 µM and a TGI [3] of 4.02 µM. The GI50 [4] was 2.14 µM, the TGI [4] was 4.32 µM and the GI50 [5] was 1.96 µM. It also gave a TGI [5] of 3.39 µM, a GI50 [6] of 1.98 µM and a TGI [6] of 3.43 µM. The GI50 [7] was 1.88 µM, the TGI [7] was 3.29 µM and the GI50 [8] was 0.0203 µM. The TGI [8] was 1.13 µM, the GI50 [9] was 3.09 µM and the TGI [9] was 9.61 µM. The GI50 [10] was 1.89 µM, the TGI [10] was 3.43 µM and the GI50 [11] was 1.69 µM. For the same compound, the TGI [11] was 3.08 µM, the GI50 [12] was 2.45 µM and the TGI [12] was 6.46 µM. For the same compound, the GI50 [13] was 0.941 µM, the TGI [13] was 2.09 µM and the GI50 [14] was 1.85 µM. It also gave a TGI [14] of 3.26 µM, a GI50 [15] of 1.74 µM and a TGI [15] of 3.12 µM. The GI50 [16] was 1.88 µM, the TGI [16] was 3.29 µM and the GI50 [17] was 0.555 µM. The TGI [17] was 2.06 µM, the GI50 [18] was 13.1 µM and the TGI [18] was 25.9 µM. It also gave a GI50 [19] of 1.97 µM, a TGI [19] of 3.43 µM and a GI50 [20] of 1.9 µM. The TGI [20] was 3.33 µM, the GI50 [21] was 0.963 µM and the TGI [21] was 2.16 µM. The GI50 [22] was 0.0334 µM, the TGI [22] was 0.839 µM and the GI50 [23] was 0.0106 µM. It also gave a TGI [23] of 0.0342 µM, a GI50 [24] of 1.46 µM and a TGI [24] of 2.81 µM. It also gave a GI50 [25] of 1.15 µM, a TGI [25] of 2.37 µM and a GI50 [26] of 0.0589 µM. For the same compound, the TGI [26] was 1.6 µM, the GI50 [27] was 2.14 µM and the TGI [27] was 3.58 µM. For the same compound, the GI50 [28] was 2.15 µM, the TGI [28] was 3.6 µM and the GI50 [29] was 2.32 µM. The TGI [29] was 3.78 µM, the GI50 [30] was 1.38 µM and the TGI [30] was 2.86 µM. For the same compound, the GI50 [31] was 1.85 µM, the TGI [31] was 3.51 µM and the GI50 [32] was 1.89 µM. For the same compound, the TGI [32] was 3.38 µM, the GI50 [33] was 1.59 µM and the TGI [33] was 2.95 µM. For the same compound, the GI50 [34] was 21.9 µM, the TGI [34] was 58.3 µM and the GI50 [35] was 2.07 µM. The TGI [35] was 3.52 µM, the GI50 [36] was 2.68 µM and the TGI [36] was 4.17 µM. It also gave a GI50 [37] of 1.86 µM, a TGI [37] of 3.32 µM and a GI50 [38] of 1.89 µM. It also gave a TGI [38] of 3.32 µM, a GI50 [39] of 1.78 µM and a TGI [39] of 3.27 µM. For the same compound, the GI50 [40] was 1.9 µM, the TGI [40] was 3.36 µM and the GI50 [41] was 1.68 µM. It also gave a TGI [41] of 3.05 µM, a GI50 [42] of 1.81 µM and a TGI [42] of 3.22 µM. It also gave a GI50 [43] of 7.01 µM, a TGI [43] of 19.1 µM and a GI50 [44] of 2.14 µM. It also gave a TGI [44] of 3.6 µM, a GI50 [45] of 0.0277 µM and a TGI [45] of 0.198 µM. For the same compound, the GI50 [46] was 0.13 µM, the TGI [46] was 1.57 µM and the GI50 [47] was 1.79 µM. The TGI [47] was 3.19 µM, the GI50 [48] was 14.2 µM and the TGI [48] was 27.3 µM. For the same compound, the GI50 [49] was 2.07 µM, the TGI [49] was 4.06 µM and the GI50 [50] was 2.07 µM. The TGI [50] was 3.51 µM, the GI50 [51] was 1.71 µM and the TGI [51] was 3.09 µM. For the same compound, the GI50 [52] was 2.36 µM, the TGI [52] was 3.85 µM and the GI50 [53] was 1.88 µM. It also gave a TGI [53] of 3.3 µM, a GI50 [54] of 3.98 µM and a TGI [54] of 13 µM. It also gave a GI50 [55] of 2.01 µM, a TGI [55] of 3.48 µM and a GI50 [56] of 0.0257 µM. For the same compound, the TGI [56] was 0.164 µM, the GI50 [57] was 0.0226 µM and the TGI [57] was 0.285 µM. The GI50 [58] was 15.8 µM and the TGI [58] was 29.5 µM.
